Consider nine molecules from BindingDB's records for doi:10.1016/0960-894X(95)00351-S (1995).

The assay in a line: Inhibition of platelet aggregation using human platelet rich plasma (hPRP) assay (200microL, 2-3 x 10e 8 platelets/mL, n=1).
Usually IC50 stands for the concentration that inhibits the measured activity by half. High values mean lower potency, low ones higher potency. As to `CC(C)[C@H]1NC(=O)c2cccc(c2F)CNC(=O)[C@H](CC(=O)O)NC(=O)CNC(=O)[C@H](CCCN=C(N)N)N(C)C1=O` [[(5S,11S,14S)-21-Fluoro-11-(3-guanidino-propyl)-14-isopropyl-12-methyl-4,7,10,13,16-pentaoxo-3,6,9,12,15-pentaaza-bicyclo[15.3.1]henicosa-1(20),17(21),18-trien-5-yl]-acetic acid], the IC50 worked out at 0.02 µM. In other words, the double-digit nanomolar range.

On to `CC(C)[C@H]1NC(=O)c2cccc(c2)CNC(=O)[C@H](CC(=O)O)NC(=O)CNC(=O)[C@H](CCCNC(=N)N)N(C)C1=O` [DMP-757], for which it took 0.02 µM to reach half-maximal inhibition (IC50). Molecule `CC(C)[C@H]1NC(=O)C2=CC=C(CNC(=O)[C@H](CC(=O)O)NC(=O)CNC(=O)[C@H](CCCN=C(N)N)N(C)C1=O)S2` [[(5S,11S,14S)-11-(3-Guanidino-propyl)-14-isopropyl-12-methyl-4,7,10,13,16-pentaoxo-20-thia-3,6,9,12,15-pentaaza-bicyclo[15.2.1]icosa-1(19),17-dien-5-yl]-acetic acid] showed an IC50 of 0.1 µM. `CC(C)[C@H]1NC(=O)C2=CC=C(CNC(=O)[C@H](CC(=O)O)NC(=O)CNC(=O)[C@H](CCCNC(=N)N)N(C)C1=O)O2` [[(5S,11S,14S)-11-(3-Guanidino-propyl)-14-isopropyl-12-methyl-4,7,10,13,16-pentaoxo-20-oxa-3,6,9,12,15-pentaaza-bicyclo[15.2.1]icosa-1(19),17-dien-5-yl]-acetic acid]: 0.05 µM corresponded to half-maximal inhibition (IC50). The value for `CC(C)[C@H]1NC(=O)c2ccc([nH]2)CNC(=O)[C@H](CC(=O)O)NC(=O)CNC(=O)[C@H](CCCNC(=N)N)N(C)C1=O` [[(5S,11S,14S)-11-(3-Guanidino-propyl)-14-isopropyl-12-methyl-4,7,10,13,16-pentaoxo-3,6,9,12,15,20-hexaaza-bicyclo[15.2.1]icosa-1(19),17-dien-5-yl]-acetic acid] was 0.1 µM; that for `CC(C)[C@H]1NC(=O)c2cccc(n2)CNC(=O)[C@H](CC(=O)O)NC(=O)CNC(=O)[C@H](CCCN=C(N)N)N(C)C1=O` [[(5S,11S,14S)-11-(3-Guanidino-propyl)-14-isopropyl-12-methyl-4,7,10,13,16-pentaoxo-3,6,9,12,15,21-hexaaza-bicyclo[15.3.1]henicosa-1(21),17,19-trien-5-yl]-acetic acid] was 2 µM; that for `CC(C)[C@H]1NC(=O)/C=C\CCNC(=O)[C@H](CC(=O)O)NC(=O)CNC(=O)[C@H](CCCNC(=N)N)N(C)C1=O` [[(Z)-(3R,9R,12R)-9-(3-Guanidino-propyl)-12-isopropyl-10-methyl-2,5,8,11,14-pentaoxo-1,4,7,10,13pentaaza-cyclooctadec-15-en-3-yl]-acetic acid] was 0.2 µM. The value for `CC(C)[C@H]1NC(=O)Cc2csc(n2)NC(=O)[C@H](CC(=O)O)NC(=O)CNC(=O)[C@H](CCCN=C(N)N)N(C)C1=O` [[(4S,10S,13S)-10-(3-Guanidino-propyl)-13-isopropyl-11-methyl-3,6,9,12,15-pentaoxo-19-thia-2,5,8,11,14,20-hexaaza-bicyclo[15.2.1]icosa-1(20),17-dien-4-yl]-acetic acid] was 0.4 µM. The value for `CC(C)[C@H]1NC(=O)C/C=C\CNC(=O)[C@H](CC(=O)O)NC(=O)CNC(=O)[C@H](CCCN=C(N)N)N(C)C1=O` [[(Z)-(3R,9R,12R)-9-(3-Guanidino-propyl)-12-isopropyl-10-methyl-2,5,8,11,14-pentaoxo-1,4,7,10,13pentaaza-cyclooctadec-16-en-3-yl]-acetic acid] was 0.2 µM.
